Laboratory results: patent publication US20090326003A1, “PYRAZOLO (3, 4-B) PYRIDINE DERIVATIVES AS PDE4 INHIBITORS” (priority 2006, published 2009)

Tested on: LPS-induced pulmonary neutrophilia
Assay: LPS induced pulmonary neutrophilia in rats, intratracheally administered PDE4 inhibitors
Format: in vivo
Settings: rat, intratracheal (i.t.) 2 hours prior to LPS challenge, wet suspension in saline/tween; for inhibition of the neutrophilia: dose not stated
Excerpt: This assay is an animal model of inflammation in the lung—specifically neutrophilia induced by lipopolysaccharide (LPS)— and allows the study of putative inhibition of such neutrophilia (anti-inflammatory effect) by intratracheally (i.t.) administered PDE4 inhibitors. The PDE4 inhibitors are preferably in dry powder or wet suspension form. I.t. administration is one model of inhaled administration, allowing topical delivery to the lung.
Animals: Male CD (Sprague Dawley Derived) rats supplied by Charles River, Raleigh, N.C., USA or Charles River, United Kingdom are housed in groups of 5 rats per cage, acclimatized after delivery for at least 5 days with bedding/nesting material regularly changed, fed on SDS diet R1 pelleted food given ad lib, and supplied with daily-changed pasteurized animal grade drinking water.
Device for wet suspension administration: This is similar to the above but a blunt dosing needle, whose forward end is slightly angled to the needle axis, is used, with a flexible plastic portex canula inserted into the needle.
Wet suspensions of the drug (aqueous) can be prepared by adding the required volume of vehicle to the drug; the vehicle used can for example be saline alone or a mixture of saline/tween (e.g. 0.2% tween 80). The wet suspension is usually sonicated for ca. 10 minutes prior to use.
Preparation, and dosing with PDE 4 inhibitor: Rats are anaesthetized by placing the animals in a sealed Perspex chamber and exposing them to a gaseous mixture of isoflurane (4.5%), nitrous oxide (3 litres.minute^−1) and oxygen (1 litre.minute^−1). Once anaesthetized, the animals are placed onto a stainless steel i.t. dosing support table. They are positioned on their back at approximately a 35° angle. A light is angled against the outside of the throat to highlight the trachea. […]
Neutrophil cell counts: The Bronchoalveolar lavage (BAL) samples are centrifuged at ca. 1300 rpm for ca. 7 minutes. […] The total cells are also counted from the resuspension. From these two counts, the total numbers of neutrophils in the BAL are determined. […]

| SMILES | inhibition of the neutrophilia | ED50 for inhibition of neutrophilia |
| --- | --- | --- |
| CCn1ncc2c(NC3CCOCC3)c(CNC(=O)c3cccc(-c4cccc(C(=O)NCc5c(C)nc6c(cnn6CC)c5NC5CCOCC5)c4)c3)c(C)nc21 [Example 29, N,N′-bis{[1-ethyl-6-methyl-4-(tetrahydro-2H-pyran-4-ylamino)-1H-pyrazolo[3,4-b]pyridin-5-yl]methyl}-3,3′-biphenyldicarboxamide] | about 40% | – |
| CCc1nc2c(cnn2CC)c(NC2CCOCC2)c1CNC(=O)c1ccc(C(=O)NCc2c(CC)nc3c(cnn3CC)c2NC2CCOCC2)o1 [Example 35, N,N′-bis{[1,6-diethyl-4-(tetrahydro-2H-pyran-4-ylamino)-1H-pyrazolo[3,4-b]pyridin-5-yl]methyl}-2,5furandicarboxamide] | about 43% | – |
| CCc1nc2c(cnn2CC)c(NC2CCOCC2)c1CNC(=O)c1ccc(-c2ccc(C(=O)NCc3c(CC)nc4c(cnn4CC)c3NC3CCOCC3)cc2)cc1 [Example 23, N,N′-bis{[1,6-diethyl-4-(tetrahydro-2H-pyran-4-ylamino)-1H-pyrazolo[3,4-b]pyridin-5-yl]methyl}-4,4′-biphenyldicarboxamide] | – | about 50 micrograms/kg body weight |
